Values after ≈ are worked out from the molar mass of the structure shown.
How the values were obtained:
[1] = system: Candida albicans (TIMM1768 Strain); assay: Test Example 1-1 antimicrobial activity test, colony formation; format: cell-based; settings: at 50 ppm, Sabouraud medium, 37° C. for 48 hours
Method: (§1) Test Microbial Strain: Candida albicans (TIMM1768 Strain) Test method: The Candida microbe cultured in an YPD liquid medium at 37° C. for 20 hours was recovered by centrifugation (3000 rpm, 5 minutes), washed twice with physiological saline, and then suspended in physiological saline, and a microbial liquid was prepared in such a way as to provide 2×10^3 cells/mL. 100 μL of the microbial liquid was applied to a Sabouraud medium to which the test compound dissolved in DMSO was added to have a predetermined concentration. After culturing at 37° C. for 48 hours, the presence or absence of colony formation was investigated.

[2] = system: Candida glabrata (TIMM6054 Strain); assay: Test Example 1-2 antimicrobial activity test, colony formation; format: cell-based; settings: at 200 ppm, YPD medium, 37° C. for 48 hours
Method: as §1, with “glabrata (TIMM6054” for “albicans (TIMM1768”, “an YPD” for “a Sabouraud”

[3] = system: Cryptococcus neoformans (TIMM1316 Strain); assay: Test Example 1-3 antimicrobial activity test, colony formation; format: cell-based; settings: at 20 ppm, Sabouraud medium, 37° C. for 48 hours
Method: as §1, with “Cryptococcus neoformans (TIMM1316” for “Candida albicans (TIMM1768”, “Cryptococcus” for “Candida”

[4] = system: Malassezia Nana (CBS95574); assay: Test Example 1-4 antimicrobial activity test, colony formation inhibition rate after 5 minutes contact; format: cell-based; settings: contact 5 minutes at 30° C., culturing 5 days
Method: Test Microbial Strain: Malassezia Nana (CBS95574)
(§2) The Malassezia microbe cultured at 32° C. for 20 hours in a Sabouraud liquid medium containing Tween80 (polyoxyethylene sorbitan monooleate: manufactured by Kanto Chemical Co., Inc.) (0.05% (v/v)) was recovered by centrifugation (3000 rpm, 5 minutes), washed twice with physiological saline, and then suspended in 10 mL of physiological saline, the resulting suspension was allowed to stand for 15 minutes, and then the supernatant was recovered. […] 100 μL of the microbial liquid resulting from the resuspension was applied to a Sabouraud medium containing Tween80 (0.05% (v/v)) and subjected to culturing at 30° C. for 5 days, then the number of colonies formed there (number of colonies formed in the inventive plot) and the number of colonies in a solvent to which the test compound was not added (the number of colonies formed in the non-agent treated plot) were measured, and the colony formation inhibition rate (%) was determined according to the following expression.

[5] = system: Malassezia pachydermatis (TIMM10024); assay: Test Example 1-5 antimicrobial activity test, colony formation inhibition rate after 5 minutes contact; format: cell-based; settings: contact 5 minutes at 30° C., culturing 5 days
Method: Test Microbial Strain: Malassezia pachydermatis (TIMM10024)
as §2, with “ml” for “mL”, “in” for “according to”, “same manner as in Test Example 1-4.” for “following expression.”

[6] = system: A. Niger (TIMM4968 Strain); assay: Test Example 1-6 antimicrobial activity test, minimum inhibitory concentration; format: cell-based; settings: Aspergillus niger, Sabouraud medium, 28° C. for 48 hours
Method: (§3) Test Microbial Strains: Aspergillus fumigatus (TIMM0063 Strain), and A. Niger (TIMM4968 Strain) Test method: The Aspergillus microbe was cultured in a PDA medium at 27° C. for 3 days, then spores were collected in physiological saline containing Tween80 (polyoxyethylene sorbitan monooleate: manufactured by Kanto Chemical Co., Inc.) (0.05% (v/v)), and this was filtered through a cell strainer (+40 μm). The spores were recovered from the filtrate by centrifugation (3500 rpm, 5 minutes) and washed twice with physiological saline, and then a spore suspension was prepared (1×10^7 spores/mL). 10 μL of the spore suspension was inoculated into a Sabouraud medium to which compound No. 1 dissolved in DMSO was added to have a predetermined concentration. After culturing at 28° C. for 48 hours, the presence or absence of microbial growth was investigated, and the minimum inhibitory concentration was determined.

[7] = system: Aspergillus fumigatus (TIMM0063 Strain); assay: as above; format: cell-based; settings: Sabouraud medium, 28° C. for 48 hours
Method: as §3

[8] = system: Arthroderma vanbreuseghemii (TIMM2789); assay: Test Example 1-7 antimicrobial activity test, minimum inhibitory concentration; format: cell-based; settings: Trichophyton mentagrophytes, Sabouraud medium, 28° C. for 72 hours
Method: (§4) Test Microbial Strains: Trichophyton rubrum (CBS118892 Strain), T. interdegitale (TIMM20065 Strain), Microsporum canis (TIMM20080 Strain), and Arthroderma vanbreuseghemii (TIMM2789)
(§5) Each microbial strain was cultured in a Sabouraud medium containing 500 μg/mL of cycloheximide and 50 μg/mL of chloramphenicol at 28° C. for 8 days, then spores were collected in physiological saline containing Tween80 (polyoxyethylene sorbitan monooleate: manufactured by Kanto Chemical Co., Inc.) (0.05% (v/v)), and this was filtered through a cell strainer (φ40 μm). The spores were recovered from the filtrate by centrifugation (3500 rpm, 5 minutes) and washed twice with physiological saline, and then a spore suspension was prepared (1×10^7 spores/mL). 10 μL of the spore suspension was inoculated into a Sabouraud medium to which compound No. 1 dissolved in DMSO was added to have a predetermined concentration. After culturing at 28° C. for 72 hours, the presence or absence of microbial growth was investigated, and the minimum inhibitory concentration was determined. As a result, the minimum inhibitory concentration of compound No. 1 for each of the four microbial strains was 10 ppm.

[9] = system: Microsporum canis (TIMM20080 Strain); assay: as above; format: cell-based; settings: Sabouraud medium, 28° C. for 72 hours
Method: as §4, §5

[10] = system: Trichophyton rubrum (CBS118892 Strain); assay: as above; format: cell-based; settings: Sabouraud medium, 28° C. for 72 hours
Method: as §4, §5

[11] = system: T. interdegitale (TIMM20065 Strain); assay: as above; format: cell-based, Trichophyton interdegitale; settings: Trichophyton, Sabouraud medium, 28° C. for 72 hours
Method: as §4, §5

Question: Which results are given for `Cc1ccc(-c2nc(C#N)[nH]c2Cl)cc1` [Compound No. 1, 5-Chloro-4-(4-methylphenyl)-1H-imidazole-2-carbonitrile]?
Answer: colony formation [1]: completely inhibited colony formation; colony formation [2]: completely suppressed colony formation; colony formation [3]: completely suppressed colony formation; inhibition at 100 ppm ([4]; at 100 ppm): 98.5%; inhibition at 200 ppm ([4]; at 200 ppm): 99.9%; inhibition at 100 ppm ([5]; at 100 ppm): 98.1%; inhibition at 200 ppm ([5]; at 200 ppm): 100%; MIC [6]: 100 µg/mL (≈ 459 µM); MIC [7]: 100 µg/mL (≈ 459 µM); MIC [8]: 10 µg/mL (≈ 45.9 µM); MIC [9]: 10 µg/mL (≈ 45.9 µM); MIC [10]: 10 µg/mL (≈ 45.9 µM); MIC [11]: 10 µg/mL (≈ 45.9 µM)

— patent US20260115170A1, “Method of Ameliorating a Symptom or a Disease in a Human Caused by Fungus” (ISHIHARA SANGYO KAISHA, LTD., priority 2020, published 2026)
